Tests used:
Assay type in all cases: in vivo
barnyardgrass [1] = experiment: Test Example 1: herbicidal effects in preemergence treatment under submerged conditions; conditions: dose 2.52 g/a
Procedure, shortened: (§1)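 Scoring 0 (<5% mortality) to 5 (≥90%) was done three weeks after preemergence application to the water surface of submerged (4 cm) alluvial soil, doses given as g per are. Weeds were seeded and 2.5-leaf rice transplanted on the treatment day; greenhouse at 25–30 °C.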

bulrush [2] = experiment: as above; conditions: dose 2.52 g/a
Procedure, shortened: as §1

ducksalad [3] = experiment: as above; conditions: dose 2.52 g/a
Procedure, shortened: as §1

transplanted rice = experiment: Test Example 1: preemergence treatment under submerged conditions, effect on crop; conditions: dose 2.52 g/a
Procedure, shortened: as §1

barnyardgrass [4] = experiment: Test Example 2: herbicidal effects during the vegetation period under submerged conditions; conditions: treatment during the vegetation period under submerged conditions; dose 2.52 g/a
Procedure, shortened: (§2)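 Barnyardgrass, bulrush and ducksalad were co-sown in alluvial soil flooded to 4 cm and grown in a greenhouse at 25 to 30° C. At the 1- or 2-leaf stage, water-diluted emulsifiable concentrates went onto the water surface at set doses (g/a). Herbicidal effect was scored three weeks later on a graded scale.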

bulrush [5] = experiment: as above; conditions: treatment during the vegetation period under submerged conditions; dose 2.52 g/a
Procedure, shortened: as §2

ducksalad [6] = experiment: as above; conditions: treatment during the vegetation period under submerged conditions; dose 2.52 g/a
Procedure, shortened: as §2

Italian ryegrass [7] = experiment: Test Example 3: herbicidal effects in soil treatment; conditions: dose 3.2 g/a
Procedure, shortened: (§3)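 Seeds were sown in sterilized diluvial soil and covered with about 1.5 cm of soil. Compounds, formulated as emulsifiable concentrates and diluted with water, were sprayed evenly over the soil surface at set doses in g/a. Herbicidal effect was scored on a rating scale three weeks later.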

barnyardgrass [8] = experiment: as above; conditions: dose 3.2 g/a
Procedure, shortened: as §3

beadstraw [9] = experiment: as above; conditions: dose 3.2 g/a
Procedure, shortened: as §3

common chickweed [10] = experiment: as above; conditions: dose 3.2 g/a
Procedure, shortened: as §3

common lambsquater [11] = experiment: as above; conditions: dose 3.2 g/a
Procedure, shortened: as §3

common ragweed [12] = experiment: as above; conditions: dose 3.2 g/a
Procedure, shortened: as §3

giant foxtail [13] = experiment: as above; conditions: dose 3.2 g/a
Procedure, shortened: as §3

large crabgrass [14] = experiment: as above; conditions: dose 3.2 g/a
Procedure, shortened: as §3

redroot pigweed [15] = experiment: as above; conditions: dose 3.2 g/a
Procedure, shortened: as §3

velvetleaf [16] = experiment: as above; conditions: dose 3.2 g/a
Procedure, shortened: as §3

water foxtail [17] = experiment: as above; conditions: dose 3.2 g/a
Procedure, shortened: as §3

Italian ryegrass [18] = experiment: Test Example 4: herbicidal effect in foliage treatment; conditions: dose 3.2 g/a
Procedure, shortened: (§4)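 Herbicidal effect was rated on an evaluation scale three weeks after treatment. Plants had been raised 14 days at 25 to 30° C in sterilized diluvial soil, then received foliar sprays of emulsifiable concentrate diluted in water at predetermined doses expressed as g per are.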

barnyardgrass [19] = experiment: as above; conditions: dose 3.2 g/a
Procedure, shortened: as §4

common chickweed [20] = experiment: as above; conditions: dose 3.2 g/a
Procedure, shortened: as §4

common lambsquater [21] = experiment: as above; conditions: dose 3.2 g/a
Procedure, shortened: as §4

common ragweed [22] = experiment: as above; conditions: dose 3.2 g/a
Procedure, shortened: as §4

giant foxtail [23] = experiment: as above; conditions: dose 3.2 g/a
Procedure, shortened: as §4

large crabgrass [24] = experiment: as above; conditions: dose 3.2 g/a
Procedure, shortened: as §4

posumbu knotweed [25] = experiment: as above; conditions: dose 3.2 g/a
Procedure, shortened: as §4

redroot pigweed [26] = experiment: as above; conditions: dose 3.2 g/a
Procedure, shortened: as §4

velvetleaf [27] = experiment: as above; conditions: dose 3.2 g/a
Procedure, shortened: as §4

water foxtail [28] = experiment: as above; conditions: dose 3.2 g/a
Procedure, shortened: as §4

posumbu knotweed [29] = experiment: Test Example 3: herbicidal effects in soil treatment; conditions: dose 3.2 g/a
Procedure, shortened: as §3

wild oat [30] = experiment: as above; conditions: dose 3.2 g/a
Procedure, shortened: as §3

beadstraw [31] = experiment: Test Example 4: herbicidal effect in foliage treatment; conditions: dose 3.2 g/a, three weeks after the application
Procedure, shortened: as §4

wild oat [32] = experiment: as above; conditions: dose 3.2 g/a, three weeks after the application
Procedure, shortened: as §4

[33] = three weeks after the application

CC1(c2ccccc2)CC(=O)N(Cc2ccccc2NS(=O)(=O)C(F)(F)F)CO1 (stereo not shown) [II-57]
A: barnyardgrass, herbicidal effect (evaluation scale 0-5) (barnyardgrass [1]): 5 (mortality of 90% or above (nearly complete death))
B: bulrush, herbicidal effect (evaluation scale 0-5) (bulrush [2]): 5 (mortality of 90% or above (nearly complete death))
C: ducksalad, herbicidal effect (evaluation scale 0-5) (ducksalad [3]): 5 (mortality of 90% or above (nearly complete death))
a: transplanted rice, effect on crop (evaluation scale 0-5) (transplanted rice): 0 (mortality of less than 5% (almost ineffective))
A: barnyardgrass, herbicidal effect (evaluation scale 0-5) (barnyardgrass [4]): 2 (mortality of at least 20% and less than 40%)
B: bulrush, herbicidal effect (evaluation scale 0-5) (bulrush [5]): 5 (mortality of 90% or above (nearly complete death))
C: ducksalad, herbicidal effect (evaluation scale 0-5) (ducksalad [6]): 5 (mortality of 90% or above (nearly complete death))
H: Italian ryegrass, herbicidal effect (evaluation scale 0-5) (Italian ryegrass [7]): 5 (mortality of 90% or above (nearly complete death))
A: barnyardgrass, herbicidal effect (evaluation scale 0-5) (barnyardgrass [8]): 2 (mortality of at least 20% and less than 40%)
O: beadstraw, herbicidal effect (evaluation scale 0-5) (beadstraw [9]): 0 (mortality of less than 5% (almost ineffective))
N: common chickweed, herbicidal effect (evaluation scale 0-5) (common chickweed [10]): 4 (mortality of at least 70% and less than 90%)
L: common lambsquater, herbicidal effect (evaluation scale 0-5) (common lambsquater [11]): 0 (mortality of less than 5% (almost ineffective))
J: common ragweed, herbicidal effect (evaluation scale 0-5) (common ragweed [12]): 0 (mortality of less than 5% (almost ineffective))
E: giant foxtail, herbicidal effect (evaluation scale 0-5) (giant foxtail [13]): 5 (mortality of 90% or above (nearly complete death))
D: large crabgrass, herbicidal effect (evaluation scale 0-5) (large crabgrass [14]): 3 (mortality of at least 40% and less than 70%)
K: redroot pigweed, herbicidal effect (evaluation scale 0-5) (redroot pigweed [15]): 0 (mortality of less than 5% (almost ineffective))
I: velvetleaf, herbicidal effect (evaluation scale 0-5) (velvetleaf [16]): 5 (mortality of 90% or above (nearly complete death))
G: water foxtail, herbicidal effect (evaluation scale 0-5) (water foxtail [17]): 5 (mortality of 90% or above (nearly complete death))
H: Italian ryegrass, herbicidal effect (Italian ryegrass [18]; three weeks after application): 5 (mortality of 90% or above (nearly complete death))
A: barnyardgrass, herbicidal effect (barnyardgrass [19]; three weeks after application): 4 (mortality of at least 70% and less than 90%)
N: common chickweed, herbicidal effect (common chickweed [20]; three weeks after application): 4 (mortality of at least 70% and less than 90%)
L: common lambsquater, herbicidal effect (common lambsquater [21]; three weeks after application): 3 (mortality of at least 40% and less than 70%)
J: common ragweed, herbicidal effect (common ragweed [22]; three weeks after application): 3 (mortality of at least 40% and less than 70%)
E: giant foxtail, herbicidal effect (giant foxtail [23]; three weeks after application): 2 (mortality of at least 20% and less than 40%)
D: large crabgrass, herbicidal effect (large crabgrass [24]; three weeks after application): 2 (mortality of at least 20% and less than 40%)
M: posumbu knotweed, herbicidal effect (posumbu knotweed [25]; three weeks after application): 3 (mortality of at least 40% and less than 70%)
K: redroot pigweed, herbicidal effect (redroot pigweed [26]; three weeks after application): 0 (mortality of less than 5% (almost ineffective))
I: velvetleaf, herbicidal effect (velvetleaf [27]; three weeks after application): 3 (mortality of at least 40% and less than 70%)
G: water foxtail, herbicidal effect (water foxtail [28]; three weeks after application): 3 (mortality of at least 40% and less than 70%)

CCN1COCN(Cc2ccccc2N(C(=O)OCC(C)C)S(=O)(=O)C(F)(F)F)C1=O [IV-8]
A: barnyardgrass, herbicidal effect (evaluation scale 0-5) (barnyardgrass [1]): 5 (mortality of 90% or above (nearly complete death))
B: bulrush, herbicidal effect (evaluation scale 0-5) (bulrush [2]): 5 (mortality of 90% or above (nearly complete death))
C: ducksalad, herbicidal effect (evaluation scale 0-5) (ducksalad [3]): 4 (mortality of at least 70% and less than 90%)
a: transplanted rice, effect on crop (evaluation scale 0-5) (transplanted rice): 0 (mortality of less than 5% (almost ineffective))
A: barnyardgrass, herbicidal effect (evaluation scale 0-5) (barnyardgrass [4]): 5 (mortality of 90% or above (nearly complete death))
B: bulrush, herbicidal effect (evaluation scale 0-5) (bulrush [5]): 5 (mortality of 90% or above (nearly complete death))
C: ducksalad, herbicidal effect (evaluation scale 0-5) (ducksalad [6]): 4 (mortality of at least 70% and less than 90%)
herbicidal effect, H: Italian ryegrass (Italian ryegrass [7]): 0 (mortality of less than 5% (almost ineffective))
herbicidal effect, A: barnyardgrass (barnyardgrass [8]): 4 (mortality of at least 70% and less than 90%)
herbicidal effect, N: common chickweed (common chickweed [10]): 0 (mortality of less than 5% (almost ineffective))
herbicidal effect, L: common lambsquater (common lambsquater [11]): 0 (mortality of less than 5% (almost ineffective))
herbicidal effect, J: common ragweed (common ragweed [12]): 0 (mortality of less than 5% (almost ineffective))
herbicidal effect, E: giant foxtail (giant foxtail [13]): 1 (mortality of at least 5% and less than 20%)
herbicidal effect, D: large crabgrass (large crabgrass [14]): 1 (mortality of at least 5% and less than 20%)
herbicidal effect, M: posumbu knotweed (posumbu knotweed [29]): 0 (mortality of less than 5% (almost ineffective))
herbicidal effect, K: redroot pigweed (redroot pigweed [15]): 0 (mortality of less than 5% (almost ineffective))
herbicidal effect, I: velvetleaf (velvetleaf [16]): 0 (mortality of less than 5% (almost ineffective))
herbicidal effect, G: water foxtail (water foxtail [17]): 5 (mortality of 90% or above (nearly complete death))
herbicidal effect, F: wild oat (wild oat [30]): 0 (mortality of less than 5% (almost ineffective))
H: Italian ryegrass, herbicidal effect (Italian ryegrass [18]; [33]): 0 (mortality of less than 5% (almost ineffective))
A: barnyardgrass, herbicidal effect (barnyardgrass [19]; [33]): 5 (mortality of 90% or above (nearly complete death))
O: beadstraw, herbicidal effect (beadstraw [31]): 3 (mortality of at least 40% and less than 70%)
N: common chickweed, herbicidal effect (common chickweed [20]; [33]): 3 (mortality of at least 40% and less than 70%)
L: common lambsquater, herbicidal effect (common lambsquater [21]; [33]): 0 (mortality of less than 5% (almost ineffective))
J: common ragweed, herbicidal effect (common ragweed [22]; [33]): 3 (mortality of at least 40% and less than 70%)
E: giant foxtail, herbicidal effect (giant foxtail [23]; [33]): 4 (mortality of at least 70% and less than 90%)
D: large crabgrass, herbicidal effect (large crabgrass [24]; [33]): 4 (mortality of at least 70% and less than 90%)
M: posumbu knotweed, herbicidal effect (posumbu knotweed [25]; [33]): 0 (mortality of less than 5% (almost ineffective))
K: redroot pigweed, herbicidal effect (redroot pigweed [26]; [33]): 0 (mortality of less than 5% (almost ineffective))
I: velvetleaf, herbicidal effect (velvetleaf [27]; [33]): 3 (mortality of at least 40% and less than 70%)
G: water foxtail, herbicidal effect (water foxtail [28]; [33]): 5 (mortality of 90% or above (nearly complete death))
F: wild oat, herbicidal effect (wild oat [32]): 0 (mortality of less than 5% (almost ineffective))

From US20120029187A1, “HALOALKYLSULFONANILIDE DERIVATIVE” (Nissan Chemical Industries, Ltd., priority 2009, published 2012)
